The values that follow come from patent publication US20120225062A1 (priority 2011, published 2012).

Assay [1] concerns KMS11 (human myeloma cell line). Kind of assay: Cell Proliferation Assay (CellTiter-Glo, 3 days). It is filed as cell-based. The note with it: KMS-11, 72 h, KMS11-luc cells. The essentials: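 EC50 from CellTiter-Glo luminescence after 3-day, 37° C compound treatment of KMS11 cells seeded at 2000 per well in IMDM plus 10% FBS.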
For orientation: In ATP-based viability assays light output follows the ATP content of the culture.

The next assay has as its target Pim 1 (Homo sapiens, UniProt P11309). Kind of assay: Pim 1 AlphaScreen assay (high ATP). In general terms: In Alpha technology, singlet oxygen from a donor bead excites a nearby acceptor bead.
Another assay addresses Pim 2 (Homo sapiens, UniProt Q9P1W9). Kind of assay: Pim 2 AlphaScreen assay (high ATP).
In a further assay the target is Pim 3 (Homo sapiens, UniProt Q86V86). Kind of assay: Pim 3 AlphaScreen assay (high ATP).

Chain of Pim 2 (Q9P1W9 whole entry): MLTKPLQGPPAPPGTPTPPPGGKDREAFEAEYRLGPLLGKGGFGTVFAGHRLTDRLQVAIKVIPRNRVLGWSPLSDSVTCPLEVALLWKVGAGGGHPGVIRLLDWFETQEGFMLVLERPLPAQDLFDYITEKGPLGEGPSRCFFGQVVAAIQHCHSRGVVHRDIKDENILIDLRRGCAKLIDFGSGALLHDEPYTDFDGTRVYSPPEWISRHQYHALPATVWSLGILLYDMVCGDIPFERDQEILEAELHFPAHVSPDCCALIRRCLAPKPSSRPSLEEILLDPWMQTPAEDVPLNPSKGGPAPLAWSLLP
Chain of Pim 1 (P11309 whole entry): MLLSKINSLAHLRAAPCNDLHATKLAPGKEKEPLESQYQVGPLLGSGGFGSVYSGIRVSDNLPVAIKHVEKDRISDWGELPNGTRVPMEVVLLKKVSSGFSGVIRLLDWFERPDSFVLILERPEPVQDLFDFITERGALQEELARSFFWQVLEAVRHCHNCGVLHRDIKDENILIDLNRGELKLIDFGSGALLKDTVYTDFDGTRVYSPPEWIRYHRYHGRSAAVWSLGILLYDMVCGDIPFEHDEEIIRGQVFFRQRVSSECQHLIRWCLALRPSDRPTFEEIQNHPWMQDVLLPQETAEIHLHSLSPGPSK
Method for Pim 2: The activity of Pim 1, Pim 2, & Pim 3 is measured using a homogeneous bead based system quantifying the amount of phosphorylated peptide substrate resulting from kinase-catalyzed phosphoryl transfer to a peptide substrate. Compounds to be tested are dissolved in 100% DMSO and directly distributed to a white 384-well plate at 0.25 μl per well. […] This is followed by the addition of 5 μl/well of Pim 1, Pim 2 or Pim 3 kinase in assay buffer (concentrations described below). Final assay concentrations (described below) are in 2.5% DMSO. The reactions are performed for ˜2 hours, then stopped by the addition of 10 μl of 0.75 μg/ml anti-phospho Ser/Thr antibody (Cell Signaling), 10 μg/ml Protein A AlphaScreen beads (Perkin Elmer), and 10 μg/ml streptavidin coated AlphaScreen beads in stop/detection buffer (50 mM EDTA, 95 mM Tris, pH=7.5, 0.01% Tween-20). The stopped reactions are incubated overnight in the dark. The phosphorylated peptide is detected via an oxygen anion initiated chemiluminescence/fluorescence cascade using the Envision plate reader (Perkin Elmer).

Regarding `C[C@@H]1C[C@H](N)C[C@H](c2ccncc2NC(=O)c2ccc(F)c(-c3c(F)cc(C4(O)CCCC4)cc3F)n2)C1` [Example 163, N-(4-((1R,3S,5S)-3-amino-5-methylcyclohexyl)pyridin-3-yl)-6-(2,6-difluoro-4-(1-hydroxycyclopentyl)phenyl)-5-fluoropicolinamide], it took 33 nM to reach a half-maximal effect in assay [1] (EC50). Also, the IC50 (commonly the point on the concentration scale where inhibition reaches its midpoint) against Pim 1 is 0.01 nM; at Pim 2, 0.93 nM; against Pim 3, 0.17 nM.
For the molecule `C[C@@H]1C[C@H](N)C[C@H](c2ccncc2NC(=O)c2ccc(F)c(-c3c(F)cc([S@+](C)[O-])cc3F)n2)C1` [Example 227, N-(4-((1R,3S,5S)-3-amino-5-methylcyclohexyl)pyridin-3-yl)-6-(2,6-difluoro-4-((S)-methylsulfinyl)phenyl)-5-fluoropicolinamide], in assay [1], the EC50 – broadly, the concentration needed to bring the measured effect to its halfway point – worked out at 221 nM. The IC50 was 0.16 nM on Pim 1, 17.3 nM at Pim 2 and 23.9 nM against Pim 3.
